Reference: patent publication US20260234165A1, “MACROCYCLIC COMPOUNDS, PREPARATION METHOD THEREFOR, AND USE THEREOF” (GENFLEET THERAPEUTICS (SHANGHAI) INC., priority 2004, published 2026)

Experiment: Assay for stability in liver microsomes
Assay type: in vitro ADME
Conditions: human liver microsomes
Procedure: This experiment was intended to investigate the metabolic stability of the test compounds in human liver microsomes. The materials used in the experiment included 10 mM solutions of the test compounds and the control sample, human liver microsomes, and reduced nicotinamide adenine dinucleotide phosphate (NADPH) powder. In the experiment, a 100 mM potassium phosphate buffer was used as the buffer system.
The liver microsome working solution was prepared by diluting the liver microsome stock solution to 0.75 mg/mL using the 100 mM potassium phosphate buffer. Then, 5 μL of the 10 mM stock solution of the test compound was taken, and 195 μL of methanol was added. The mixture was well mixed to prepare a working solution A with a concentration of 0.25 mM.
Subsequently, the working solution A was diluted to 1.5 μM using the liver microsome working solution to prepare a compound-liver microsome mixed solution. Additionally, NADPH powder was dissolved in a 100) mM potassium phosphate buffer to prepare a 6 mM NADPH solution. The compound-liver microsome mixed solution was dispensed into a 96-well plate at 30 μL/well, with labeled time points of 0 min, 30 min, and 60 min. For 0-min samples, 180 μL of acetonitrile containing 100 ng/mL tolbutamide and 15 μL of the NADPH solution were added directly. The 96-well plate and the NADPH solution were then preheated under a 37° C. water bath for 5 min. After the preheating, 15 μL of the NADPH solution was added to each of the 30-min and 60-min sample wells. The plate was gently shaken for mixing and then incubated under the 37° C. water bath for the corresponding time. After the incubation was completed. 180 μL of acetonitrile containing 100 ng/mL tolbutamide was added to each sample well. The plate was sealed with a sealing film, shaken for 10 min (800 rpm/min), and then centrifuged for 15 min (4000 rpm). After the centrifugation, 50 μL of the supernatant was taken and added to a 96-well plate containing 150 μL of deionized water, and then the plate was sealed and shaken for 10 min (800 rpm) for uniform mixing. Subsequently sample analysis was performed using liquid chromatography-tandem mass spectrometry (LC-MS/MS).
The elimination rate constant and clearance rate of the test compound in liver microsomes were calculated using the following formulas: Remaining rate (%)=(peak area ratio of the compound to internal standard at any time point/peak area ratio of the compound to internal standard at 0 min)×100%,^4. T1/2=0.693/ke, where ke is the elimination rate constant and T1/2 is the half-life. Liver microsome intrinsic clearance rate (CLint(mic))=0.693/(T1/2× microsome protein concentration (mg/mL)). Liver intrinsic clearance rate (CLint(liver))=CLint(mic)×microsome protein-to-liver weight ratio (mg/g)×liver-to-body weight ratio (g/kg). In the formulas, CLint(mic) is the liver microsome intrinsic clearance rate, CLint(liver) is the liver intrinsic clearance rate, and CL(liver) is the liver clearance rate. For humans, the microsome protein-to-liver weight ratio was 45 mg/g, and the liver-to-body weight ratio was 20.7 g/kg.

SMILES	half-life at 1 µM (NADPH, 37° C., 0/30/60 min) [min]	CLint scaled at 1 µM (liver intrinsic clearance rate) [mL/min/kg]	T1/2 (NADPH, 37° C., 0/30/60 min) [min]	CLint(liver) (liver intrinsic clearance rate) [mL/min/kg]
CCn1c(-c2cc(N3CCN4CC5(CC5)OC[C@@H]4C3)cnc2[C@H](C)OC)c2c3cc(ccc31)-c1csc(n1)C[C@H](NC(=O)[C@H]1[C@H](C)[C@@H]1C)C(=O)N1CCC[C@H](N1)C(=O)OCC1(CC1)C2 (atropisomer, axis not shown; (Ra)) [Compound Z13]	36.7	43.7		
CCn1c(-c2cc(C#CCN3CCC(C(F)(F)F)CC3)cnc2[C@H](C)OC)c2c3cc(ccc31)-c1csc(n1)C[C@H](NC(=O)[C@H]1[C@H](C)[C@@H]1C)C(=O)N1CCC[C@H](N1)C(=O)OCC(C)(C)C2 (atropisomer, axis not shown; (Ra)) [Compound Z778]	50.3	31.9		
CCn1c(-c2cc(C#CCN3CCCN(C)CC3)cnc2[C@H](C)OC)c2c3cc(ccc31)-c1csc(n1)C[C@H](NC(=O)[C@H]1[C@H](C)[C@@H]1C)C(=O)N1CCC[C@H](N1)C(=O)OCC(C)(C)C2 (atropisomer, axis not shown; (Ra)) [Compound Z802, (1r,2R,3S)—N-((6^3S,4S,Z)-1^2-(5-(3-(4-methyl-1,4-diaza-1-yl)prop-1-yn-1-yl)-(Ra)-2-((S)-1-methoxyethyl)pyridin-3-yl)-1^1-ethyl-10,10-dimethyl-5,7-dioxo-6^1,6^2,6^3,6^4,6^5,6^6-hexahydro-1^1H-8-oxa-2(4,2)-thiazola-1(5,3)-indola-6(1,3)-pyridazinacycloundecaphane-4-yl)-2,3-dimethylcyclopropane-1-carboxamide]	98.7	16.2		
CCn1c(-c2cc(C#CCN3CCS(=O)(=O)CC3)cnc2[C@H](C)OC)c2c3cc(ccc31)-c1csc(n1)C[C@H](NC(=O)[C@H]1[C@H](C)[C@@H]1C)C(=O)N1CCC[C@H](N1)C(=O)OCC(C)(C)C2 (atropisomer, axis not shown; (Ra)) [Compound Z838, (1r,2R,3S)—N-((6^3S,4S,Z)—(Ra)-1^2-(5-(3-(1,1-dioxidothiomorpholino)prop-1-yn-1-yl)-2-((S)-1-methoxyethyl)pyridin-3-yl)-1^1-ethyl-10,10-dimethyl-5,7-dioxo-6^1,6^2,6^3,6^4,6^5,6^6-hexahydro-1^1H-8-oxa-2(4,2)-thiazola-1(5,3)-indola-6(1,3)-pyridazinacycloundecaphane-4-yl)-2,3-dimethylcyclopropane-1-carboxamide]	25	64.2		
CCn1c(-c2cc(C#CCN3CCS(=O)(=O)CC3)cnc2[C@H](C)OC)c2c3cc(ccc31)-c1csc(n1)C[C@H](Nc1nnc3cc(C)ccn13)C(=O)N1CCC[C@H](N1)C(=O)OCC(C)(C)C2 (atropisomer, axis not shown; (Ra)) [Compound Z911, (6^3S,4S,Z)—(Ra)-1^2-(5-(3-(1,1-dioxidothiomorpholino)prop-1-yn-1-yl)-2-((S)-1-methoxyethyl)pyridin-3-yl)-1^1-ethyl-10,10-dimethyl-4-((7-methyl-[1,2,4]triazolo[4,3-a]pyridin-3-yl)amino)-6^1,6^2,6^3,6^4,6^5,6^6-hexahydro-1^1H-8-oxa-2(4,2)-thiazola-1(5,3)-indola-6(1.3)-pyridazinacycloundecaphane-5,7-dione]	36	44.5		
CCn1c(-c2cc(C#CCN3CCCOCC3)cnc2C(C)C)c2c3cc(ccc31)-c1csc(n1)C[C@H](NC(=O)[C@H]1[C@H](C)[C@@H]1C)C(=O)N1CCC[C@H](N1)C(=O)OCC(C)(C)C2 (atropisomer, axis not shown; (Sa)) [Compound Z811-2, (1r,2R,3S)—N-((6^3S,4S,Z)—(Sa)-1-(5-(3-(1,4-oxazepan-4-yl)prop-1-yn-1-yl)-2-isopropylpyridin-3-yl)-1^1-ethyl-10,10-dimethyl-5,7-dioxo-6^1,6^2,6^3,6^4,6^5,6^6-hexahydro-1^1H-8-oxa-2(4,2)-thiazola-1(5,3)-indola-6(1,3)-pyridazinacycloundecaphane-4-yl)-2,3-dimethylcyclopropane-1-carboxamide]			38.9	41.2
CCn1c(-c2cc(N3CCN(CCS(C)(=O)=O)CC3)cnc2[C@H](C)OC)c2c3cc(ccc31)-c1csc(n1)C[C@H](NC(=O)[C@H]1[C@H](C)[C@@H]1C)C(=O)N1CCC[C@H](N1)C(=O)OCC1(CC1)C2 (single isomer, unassigned) [Compound Z367]	48.2	33.2		
CCO[C@@H](C)c1ncc(N2CCN(CCS(C)(=O)=O)CC2)cc1-c1c2c3cc(ccc3n1CC)-c1csc(n1)C[C@H](NC(=O)[C@H]1[C@H](C)[C@@H]1C)C(=O)N1CCC[C@H](N1)C(=O)OCC1(CC1)C2 (single isomer, unassigned) [Compound Z378-1]	64.2	25		
